# Experimental data from ChEMBL document CHEMBL1201861, “Genomics of Drug Sensitity in Cancer screening data, Wellcome Trust Sanger Institute”.
# Key:
# Assay in all cases: cells
# Details in all cases: Homo sapiens
# SBC-1 = type: functional, cell-based;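 further: cell viability assay measuring growth inhibition of the SBC-1 cell line, IC50 being the concentration that halves growth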
# Description: SANGER: Inhibition of human SBC-1 cell growth in a cell viability assay.
# SHP77 = type: functional, cell-based, SHP-77;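 further: growth inhibition of human SHP-77 cells measured by a cell viability assay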
# Description: SANGER: Inhibition of human SHP-77 cell growth in a cell viability assay.
# NEC8 = type: functional, cell-based;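 further: growth inhibition of human NEC8 cells, read out by a cell viability assay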
# Description: SANGER: Inhibition of human NEC8 cell growth in a cell viability assay.
# KY821 = type: functional, cell-based;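 further: growth inhibition of human KY821 cells, read out by a cell viability assay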
# Description: SANGER: Inhibition of human KY821 cell growth in a cell viability assay.
# RH-1 = type: functional, cell-based;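 further: growth inhibition of human RH-1 cells, read out with a cell viability assay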
# Description: SANGER: Inhibition of human RH-1 cell growth in a cell viability assay.
# D-263MG = type: functional, cell-based
# Description: SANGER: Inhibition of human D-263MG cell growth in a cell viability assay.
# HCE-4 = type: functional, cell-based;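 further: cell viability assay measuring inhibition of growth in the human HCE-4 cell line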
# Description: SANGER: Inhibition of human HCE-4 cell growth in a cell viability assay.
# KNS-42 = type: functional, cell-based;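 further: growth inhibition of KNS-42 cells, read out with a cell viability assay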
# Description: SANGER: Inhibition of human KNS-42 cell growth in a cell viability assay.
# NB5 = type: functional, cell-based;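 further: growth inhibition of NB5 cells, read out as cell viability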
# Description: SANGER: Inhibition of human NB5 cell growth in a cell viability assay.
# LS-411N = type: functional, cell-based
# KS-1 = type: functional, cell-based;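 further: growth inhibition of KS-1 cells, read out with a cell viability assay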
# Description: SANGER: Inhibition of human KS-1 cell growth in a cell viability assay.
# C2BBe1 = type: functional, cell-based;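 further: growth inhibition of C2BBe1 cells, read out through a viability assay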
# Description: SANGER: Inhibition of human C2BBe1 cell growth in a cell viability assay.
# HOP-62 = type: functional, cell-based;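 further: cell growth inhibition determined with a viability assay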
# Description: SANGER: Inhibition of human HOP-62 cell growth in a cell viability assay.
# MSTO-211H = type: functional, cell-based
# Description: SANGER: Inhibition of human MSTO-211H cell growth in a cell viability assay.
# BB65-RCC = type: functional, cell-based;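 further: growth inhibition of the cell line, measured with a cell viability assay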
# Description: SANGER: Inhibition of human BB65-RCC cell growth in a cell viability assay.
# EW-24 = type: functional, cell-based;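 further: human EW-24 cancer cell line, growth inhibition read out via a cell viability assay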
# Description: SANGER: Inhibition of human EW-24 cell growth in a cell viability assay.
# HEL = type: functional, cell-based;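 further: growth inhibition of HEL cells, read out with a cell viability assay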
# Description: SANGER: Inhibition of human HEL cell growth in a cell viability assay.
# MOLT-4 = type: functional, cell-based;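 further: growth inhibition of MOLT-4 cells, determined with a cell viability readout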
# Description: SANGER: Inhibition of human MOLT-4 cell growth in a cell viability assay.
# COLO-668 = type: functional, cell-based
# Description: SANGER: Inhibition of human COLO-668 cell growth in a cell viability assay.
# LB373-MEL-D = type: functional, cell-based;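 further: growth inhibition of the cell line, read out in a cell viability assay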
# Description: SANGER: Inhibition of human LB373-MEL-D cell growth in a cell viability assay.
# CGTH-W-1 = type: functional, cell-based;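 further: growth inhibition of human CGTH-W-1 cells measured by cell viability assay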
# Description: SANGER: Inhibition of human CGTH-W-1 cell growth in a cell viability assay.
# ALL-PO = type: functional, cell-based;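 further: growth inhibition of ALL-PO cells, read out by a cell viability assay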
# Description: SANGER: Inhibition of human ALL-PO cell growth in a cell viability assay.
# NTERA-2-cl-D1 = type: functional, cell-based;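 further: inhibition of cell growth, measured with a cell viability assay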
# Description: SANGER: Inhibition of human NTERA-S-cl-D1 cell growth in a cell viability assay.
# GR-ST = type: functional, cell-based
# Description: SANGER: Inhibition of human GR-ST cell growth in a cell viability assay.
# GT3TKB = type: functional, cell-based;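 further: growth inhibition of the cell line, read out with a cell viability assay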
# Description: SANGER: Inhibition of human GT3TKB cell growth in a cell viability assay.
# LB1047-RCC = type: functional, cell-based;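 further: inhibition of cell growth, determined with a cell viability assay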
# Description: SANGER: Inhibition of human LB1047-RCC cell growth in a cell viability assay.
# KE-37 = type: functional, cell-based;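 further: growth inhibition of KE-37 cells, read out with a cell viability assay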
# Description: SANGER: Inhibition of human KE-37 cell growth in a cell viability assay.
# ES8 = type: functional, cell-based;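 further: growth inhibition of human ES8 cells, read out with a cell viability assay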
# Description: SANGER: Inhibition of human ES8 cell growth in a cell viability assay.
# EW-11 = type: functional, cell-based;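 further: growth inhibition of human EW-11 cells, measured with a cell viability assay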
# Description: SANGER: Inhibition of human EW-11 cell growth in a cell viability assay.
# K5 = type: functional, cell-based
# Description: SANGER: Inhibition of human K5 cell growth in a cell viability assay.
# LNCaP-Clone-FGC = type: functional, cell-based
# Description: SANGER: Inhibition of human LNCaP-Clone-FGC cell growth in a cell viability assay.
# DSH1 = type: functional, cell-based;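 further: growth inhibition of human DSH1 cells, measured with a cell viability readout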
# Description: SANGER: Inhibition of human DSH1 cell growth in a cell viability assay.
# ES3 = type: functional, cell-based;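 further: growth inhibition of ES3 cells, read out with a cell viability assay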
# Description: SANGER: Inhibition of human ES3 cell growth in a cell viability assay.
# NMC-G1 = type: functional, cell-based;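 further: growth inhibition of the NMC-G1 cell line, measured with a cell viability read-out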
# Description: SANGER: Inhibition of human NMC-G1 cell growth in a cell viability assay.
# SNU-C2B = type: functional, cell-based;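 further: cell viability readout used to measure compound-driven suppression of SNU-C2B cell proliferation, IC50 marking half-maximal growth inhibition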
# Description: SANGER: Inhibition of human SNU-C2B cell growth in a cell viability assay.
# SH-4 = type: functional, cell-based;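 further: growth inhibition of SH-4 cells, read out with a cell viability assay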
# Description: SANGER: Inhibition of human SH-4 cell growth in a cell viability assay.
# COR-L88 = type: functional, cell-based;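 further: growth inhibition of COR-L88 cells, read out with a cell viability assay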
# Description: SANGER: Inhibition of human COR-L88 cell growth in a cell viability assay.
# P30-OHK = type: functional, cell-based;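 further: growth inhibition of the P30-OHK cell line, read out with a cell viability assay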
# Description: SANGER: Inhibition of human P30-OHK cell growth in a cell viability assay.
# IST-MES1 = type: functional, cell-based;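 further: growth inhibition of IST-MES1 cells, measured with a cell viability assay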
# Description: SANGER: Inhibition of human IST-MES1 cell growth in a cell viability assay.
# J-RT3-T3-5 = type: functional, cell-based;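 further: cell viability assay measuring growth inhibition of human J-RT3-T3-5 cells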
# Description: SANGER: Inhibition of human J-RT3-T3-5 cell growth in a cell viability assay.
# KALS-1 = type: functional, cell-based;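 further: growth inhibition of KALS-1 cells, determined with a cell viability assay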
# Description: SANGER: Inhibition of human KALS-1 cell growth in a cell viability assay.
# 8-MG-BA = type: functional, cell-based;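 further: growth inhibition of 8-MG-BA cells, read out with a cell viability assay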
# Description: SANGER: Inhibition of human 8-MG-BA cell growth in a cell viability assay.
# GCIY = type: functional, cell-based;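 further: growth inhibition of the human GCIY cell line, read out by a cell viability assay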
# Description: SANGER: Inhibition of human GCIY cell growth in a cell viability assay.
# TK-10 = type: functional, cell-based;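 further: growth inhibition of TK-10 cells, read out in a cell viability assay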
# Description: SANGER: Inhibition of human TK10 cell growth in a cell viability assay.
# D283 Med = type: functional, cell-based
# Description: SANGER: Inhibition of human D-283MED cell growth in a cell viability assay.
# EM-2 = type: functional, cell-based;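 further: growth inhibition of EM-2 cells, read out with a cell viability assay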
# Description: SANGER: Inhibition of human EM-2 cell growth in a cell viability assay.
# NCI-H23 = type: functional, cell-based;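 further: cell viability assay measuring growth inhibition of NCI-H23 cells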
# Description: SANGER: Inhibition of human NCI-H23 cell growth in a cell viability assay.
# KU812 cell line = type: functional, cell-based;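 further: growth inhibition of KU812 cells, read out with a cell viability assay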
# Description: SANGER: Inhibition of human KU812 cell growth in a cell viability assay.
# U-266 = type: functional, cell-based
# Description: SANGER: Inhibition of human U-266 cell growth in a cell viability assay.
# SCC-15 = type: functional, cell-based;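 further: growth inhibition of SCC-15 cells, read out with a cell viability assay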
# Description: SANGER: Inhibition of human SCC-15 cell growth in a cell viability assay.
# SK-N-DZ = type: functional, cell-based;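 further: growth inhibition of the cancer cell line, read out through a viability assay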
# Description: SANGER: Inhibition of human SK-N-DZ cell growth in a cell viability assay.
# MLMA = type: functional, cell-based;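 further: growth inhibition of MLMA cells (human), determined through a cell viability readout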
# Description: SANGER: Inhibition of human MLMA cell growth in a cell viability assay.
# KURAMOCHI = type: functional, cell-based;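 further: growth inhibition of KURAMOCHI cells, read out with a cell viability assay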
# Description: SANGER: Inhibition of human KURAMOCHI cell growth in a cell viability assay.
# KNS-81-FD = type: functional, cell-based;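 further: growth inhibition of KNS-81-FD cells, read out with a cell viability assay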
# Description: SANGER: Inhibition of human KNS-81-FD cell growth in a cell viability assay.
# Lu-65 = type: functional, cell-based;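 further: growth inhibition of Lu-65 cancer cells, read out by a cell viability assay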
# Description: SANGER: Inhibition of human LU-65 cell growth in a cell viability assay.
# NCI-H1648 = type: functional, cell-based;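 further: cell viability assay measuring inhibition of NCI-H1648 cell growth, from the Sanger screening data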
# Description: SANGER: Inhibition of human NCI-H1648 cell growth in a cell viability assay.
# CCRF-CEM = type: functional, cell-based
# Description: SANGER: Inhibition of human CCRF-CEM cell growth in a cell viability assay.
# NCI-H720 = type: functional, cell-based
# Description: SANGER: Inhibition of human NCI-H720 cell growth in a cell viability assay.
# OMC-1 = type: functional, cell-based
# Description: SANGER: Inhibition of human OMC-1 cell growth in a cell viability assay.
# HCE-T = type: functional, cell-based
# Description: SANGER: Inhibition of human HCE-T cell growth in a cell viability assay.
# BT-474 = type: functional, cell-based
# Description: SANGER: Inhibition of human BT-474 cell growth in a cell viability assay.
# LS-123 = type: functional, cell-based
# Description: SANGER: Inhibition of human LS-123 cell growth in a cell viability assay.
# JVM-2 = type: functional, cell-based
# Description: SANGER: Inhibition of human JVM-2 cell growth in a cell viability assay.
# NCI-H1650 = type: functional, cell-based
# Description: SANGER: Inhibition of human NCI-H1650 cell growth in a cell viability assay.
# GOTO = type: functional, cell-based
# Description: SANGER: Inhibition of human GOTO cell growth in a cell viability assay.
# EC-GI-10 = type: functional, cell-based
# Description: SANGER: Inhibition of human EC-GI-10 cell growth in a cell viability assay.
smiles,measurement,setting,value
CCNc1cc(N[C@H]2CC[C@@H](O)CC2)nc(Nc2ccc3c(ccn3Cc3ccccc3)c2)n1,IC50,SBC-1,> 5.12 µM
same,IC50,SHP77,> 5.12 µM
same,IC50,NEC8,> 5.12 µM
same,IC50,KY821,> 5.12 µM
same,IC50,RH-1,> 5.12 µM
same,IC50,D-263MG,> 5.12 µM
same,IC50,HCE-4,> 5.12 µM
same,IC50,KNS-42,> 5.12 µM
same,IC50,NB5,> 5.12 µM
same,IC50,LS-411N,> 5.12 µM
same,IC50,KS-1,4.3 µM
same,IC50,C2BBe1,> 5.12 µM
same,IC50,HOP-62,> 5.12 µM
same,IC50,MSTO-211H,> 5.12 µM
same,IC50,BB65-RCC,> 5.12 µM
same,IC50,EW-24,> 5.12 µM
same,IC50,HEL,> 5.12 µM
same,IC50,MOLT-4,> 5.12 µM
same,IC50,COLO-668,> 5.12 µM
same,IC50,LB373-MEL-D,> 5.12 µM
same,IC50,CGTH-W-1,> 5.12 µM
same,IC50,ALL-PO,> 5.12 µM
same,IC50,NTERA-2-cl-D1,> 5.12 µM
same,IC50,GR-ST,> 5.12 µM
same,IC50,GT3TKB,> 5.12 µM
same,IC50,LB1047-RCC,> 5.12 µM
same,IC50,KE-37,> 5.12 µM
same,IC50,ES8,> 5.12 µM
same,IC50,EW-11,> 5.12 µM
same,IC50,K5,> 5.12 µM
same,IC50,LNCaP-Clone-FGC,> 5.12 µM
same,IC50,DSH1,> 5.12 µM
same,IC50,ES3,> 5.12 µM
same,IC50,NMC-G1,> 5.12 µM
same,IC50,SNU-C2B,> 5.12 µM
same,IC50,SH-4,3.31 µM
same,IC50,COR-L88,> 5.12 µM
same,IC50,P30-OHK,> 5.12 µM
same,IC50,IST-MES1,> 5.12 µM
same,IC50,J-RT3-T3-5,> 5.12 µM
same,IC50,KALS-1,> 5.12 µM
same,IC50,8-MG-BA,> 5.12 µM
same,IC50,GCIY,> 5.12 µM
same,IC50,TK-10,> 5.12 µM
same,IC50,D283 Med,> 5.12 µM
same,IC50,EM-2,> 5.12 µM
same,IC50,NCI-H23,> 5.12 µM
same,IC50,KU812 cell line,> 5.12 µM
same,IC50,U-266,> 5.12 µM
same,IC50,SCC-15,> 5.12 µM
same,IC50,SK-N-DZ,> 5.12 µM
same,IC50,MLMA,> 5.12 µM
same,IC50,KURAMOCHI,> 5.12 µM
same,IC50,KNS-81-FD,> 5.12 µM
same,IC50,Lu-65,> 5.12 µM
same,IC50,NCI-H1648,> 5.12 µM
same,IC50,CCRF-CEM,> 5.12 µM
same,IC50,NCI-H720,> 5.12 µM
same,IC50,OMC-1,> 5.12 µM
same,IC50,HCE-T,> 5.12 µM
same,IC50,BT-474,> 5.12 µM
same,IC50,LS-123,> 5.12 µM
same,IC50,JVM-2,> 5.12 µM
same,IC50,NCI-H1650,> 5.12 µM
same,IC50,GOTO,> 5.12 µM
same,IC50,EC-GI-10,> 5.12 µM
C[C@]1(c2nc3c(C(N)=O)cccc3[nH]2)CCCN1 [VELIPARIB],IC50,SBC-1,> 5 µM
same,IC50,SHP77,> 5 µM
same,IC50,NEC8,> 5 µM
same,IC50,KY821,> 5 µM
same,IC50,RH-1,> 5 µM
same,IC50,D-263MG,> 5 µM
same,IC50,HCE-4,> 5 µM
same,IC50,KNS-42,> 5 µM
same,IC50,NB5,> 5 µM
same,IC50,LS-411N,> 5 µM
same,IC50,KS-1,> 5 µM
same,IC50,C2BBe1,> 5 µM
same,IC50,HOP-62,> 5 µM
same,IC50,MSTO-211H,> 5 µM
same,IC50,BB65-RCC,> 5 µM
same,IC50,EW-24,> 5 µM
same,IC50,HEL,> 5 µM
same,IC50,MOLT-4,> 5 µM
same,IC50,COLO-668,> 5 µM
same,IC50,LB373-MEL-D,> 5 µM
same,IC50,CGTH-W-1,> 5 µM
same,IC50,ALL-PO,> 5 µM
same,IC50,NTERA-2-cl-D1,> 5 µM
same,IC50,GR-ST,> 5 µM
same,IC50,GT3TKB,> 5 µM
same,IC50,LB1047-RCC,> 5 µM
same,IC50,KE-37,> 5 µM
same,IC50,ES8,> 5 µM
same,IC50,EW-11,> 5 µM
same,IC50,K5,> 5 µM
same,IC50,LNCaP-Clone-FGC,> 5 µM
same,IC50,DSH1,> 5 µM
same,IC50,ES3,> 5 µM
same,IC50,NMC-G1,> 5 µM
same,IC50,SNU-C2B,> 5 µM
same,IC50,SH-4,> 5 µM
same,IC50,COR-L88,> 5 µM
same,IC50,P30-OHK,> 5 µM
same,IC50,IST-MES1,> 5 µM
same,IC50,J-RT3-T3-5,> 5 µM
same,IC50,KALS-1,> 5 µM
same,IC50,8-MG-BA,> 5 µM
same,IC50,GCIY,> 5 µM
same,IC50,TK-10,> 5 µM
same,IC50,D283 Med,> 5 µM
same,IC50,EM-2,> 5 µM
same,IC50,NCI-H23,> 5 µM
same,IC50,KU812 cell line,> 5 µM
same,IC50,U-266,> 5 µM
same,IC50,SCC-15,> 5 µM
same,IC50,SK-N-DZ,> 5 µM
same,IC50,MLMA,> 5 µM
same,IC50,KURAMOCHI,> 5 µM
same,IC50,KNS-81-FD,> 5 µM
same,IC50,Lu-65,> 5 µM
same,IC50,NCI-H1648,> 5 µM
same,IC50,CCRF-CEM,> 5 µM
same,IC50,NCI-H720,> 5 µM
same,IC50,OMC-1,> 5 µM
same,IC50,HCE-T,> 5 µM
same,IC50,BT-474,> 5 µM
same,IC50,LS-123,> 5 µM
same,IC50,JVM-2,> 5 µM
same,IC50,NCI-H1650,> 5 µM
same,IC50,GOTO,> 5 µM
same,IC50,EC-GI-10,> 5 µM
